In patent US10317417B2, “Buccal cell diagnosis of arrhythmogenic cardiomyopathy (ACM)” (Beth Israel Deaconess Medical Center, Inc., priority 2015, dated 2019):

Test system: cultured buccal mucosa cells from ACM patients and gene carriers
Assay: Immunostaining of cultured buccal mucosa cells after incubation with SB216763
Type: cell-based, human
Design: dose or concentration left out as unconfirmed
Settings: cultured buccal mucosa cells from ACM patients and unaffected gene carriers, confocal microscopy
Description: The oral cavity was first rinsed thoroughly with antiseptic mouthwash. Buccal mucosa cells were collected with a sterile toothbrush which was lightly scraped on the inside of both cheeks for ˜2 minutes. The oral cavity was washed with 15 ml of sterile saline which was collected in a centrifuge tube. The toothbrush itself was washed in an additional 10 ml of saline. The same process was repeated one or more times. The resultant cell suspension was centrifuged at 3000 g for 5 minutes. The pellet was washed once in sterile PBS, re-centrifuged and subsequently re-suspended in 20 ml of PBS supplemented with 5% penicillin/streptomycin and 7 mM fungizone for 30 minutes. The cells were then washed twice in PBS, reconstituted in KGM™-CD chemically defined keratinocyte growth medium (LONZA) and seeded on matrigel-coated chamber slides, where they were maintained at 37° C., 5% CO2 for up to 7 days. Selected cultures were incubated with SB216763 ([…]) for 24 hours prior to immunostaining. Buccal mucosa cultures were washed in PBS, fixed in 4% paraformaldehyde and, after being washed 3 additional times in PBS, were immunostained as described above with mouse monoclonal anti-plakoglobin (Sigma) or mouse monoclonal anti-Cx43 (Millipore) primary antibodies. All immunostained preparations were imaged at 40× using a ZEISS inverted confocal microscope.

`Cn1cc(C2=C(c3ccc(Cl)cc3Cl)C(=O)NC2=O)c2ccccc21` [SB216763] was tested, and the Cx43 signal distribution was “normalized” and the plakoglobin signal distribution was “normalized”.
